Results taken from PubChem BioAssay (NCI).
“And” between values parts separate entries of the source, which are not always exact repeats. Identical values can stand only once.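 1) Cells in 96-well plates. 2) Compound, 48 h, 5 concentrations. 3) Linear interpolation between surrounding doses. 4) Unreached endpoint = highest concentration. Abbreviation: GI50, concentration required for 50% inhibition of growth. Definition used: TGI = concentration required for complete inhibition of growth.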

How the values were obtained:
Experiment in all cases: inhibition of tumour cell growth, NCI panel, 48 h
K-562 leukemia = system: K-562 leukemia
SN12C renal = system: SN12C renal
MOLT-4 leukemia = system: MOLT-4 leukemia
HOP-92 NSCLC = system: HOP-92 NSCLC
TK-10 renal = system: TK-10 renal
OVCAR-5 ovarian = system: OVCAR-5 ovarian
KM12 colon = system: KM12 colon
MDA-MB-231 breast = system: MDA-MB-231 breast
COLO 205 colon = system: COLO 205 colon
HL-60(TB) leukemia = system: HL-60(TB) leukemia

CCOC1=C(c2ccccc2)N2CCCCC2O1 (stereo not given)
TGI (K-562 leukemia): > 47.5 µM
TGI (SN12C renal): > 41.9 µM
TGI (MOLT-4 leukemia): > 73 µM
TGI (HOP-92 NSCLC): 6 µM
TGI (TK-10 renal): > 38.6 µM
TGI (OVCAR-5 ovarian): > 59.2 µM
TGI (KM12 colon): 14 µM
TGI (MDA-MB-231 breast): > 48.5 µM
TGI (COLO 205 colon): 4.7 µM

CC1=CCC[C@H]2[C@](C)(CC3=CC(=O)C(SCC(C)C)=CC3=O)[C@@H](C)CC[C@]12C
TGI (K-562 leukemia): 30.8 µM
TGI (SN12C renal): > 57.5 µM
TGI (MOLT-4 leukemia): 6.19 µM
TGI (HOP-92 NSCLC): 17.9 µM
TGI (TK-10 renal): 31.3 µM
TGI (OVCAR-5 ovarian): 40.9 µM
TGI (KM12 colon): 28 µM
TGI (MDA-MB-231 breast): > 64 µM
TGI (COLO 205 colon): 36.6 µM

CCCCN(C)/N=N/c1nc[nH]c1C(N)=O
TGI (K-562 leukemia): > 100 µM
TGI (SN12C renal): > 100 µM
TGI (MOLT-4 leukemia): > 100 µM
TGI (HOP-92 NSCLC): > 100 µM
TGI (HL-60(TB) leukemia): > 100 µM
TGI (OVCAR-5 ovarian): > 100 µM
TGI (KM12 colon): > 100 µM
TGI (COLO 205 colon): > 100 µM

N/C(=N\N=C\c1ncccc1O)NO
TGI (K-562 leukemia): > 60.7 µM
TGI (SN12C renal): > 100 µM
TGI (MOLT-4 leukemia): > 64.4 µM
TGI (HOP-92 NSCLC): > 100 µM
TGI (HL-60(TB) leukemia): > 26.5 µM
TGI (OVCAR-5 ovarian): > 100 µM
TGI (KM12 colon): > 100 µM
TGI (COLO 205 colon): > 39.8 µM

COc1ccc(C(=O)/C=C/c2cc(-c3cc(OC)c(OC)c(OC)c3)n[nH]2)cc1
GI50 (MOLT-4 leukemia): 2.67 µM
TGI (MOLT-4 leukemia): 6.82 µM
GI50 (HL-60(TB) leukemia): 2.16 µM
TGI (HL-60(TB) leukemia): 4.78 µM
GI50 (TK-10 renal): 2.22 µM
TGI (TK-10 renal): 5.77 µM
GI50 (OVCAR-5 ovarian): 1.88 µM
TGI (OVCAR-5 ovarian): 3.78 µM
GI50 (KM12 colon): 1.56 µM
TGI (KM12 colon): 3.06 µM
GI50 (COLO 205 colon): 1.73 µM
TGI (COLO 205 colon): 3.24 µM

O=[N+]([O-])/C(C(Cl)=C(Cl)Cl)=C(/Nc1cccc2cccnc12)n1nnc2ccccc21
TGI (K-562 leukemia): > 100 µM
TGI (SN12C renal): 39.5 µM
TGI (MOLT-4 leukemia): > 100 µM
TGI (OVCAR-5 ovarian): 58.3 µM
TGI (KM12 colon): 29.5 µM
TGI (COLO 205 colon): 31.1 µM

COc1ccc(Oc2ccccc2N)cc1
TGI (K-562 leukemia): > 100 µM
TGI (SN12C renal): > 100 µM
TGI (MOLT-4 leukemia): > 100 µM
TGI (HOP-92 NSCLC): > 100 µM
TGI (HL-60(TB) leukemia): > 100 µM
TGI (OVCAR-5 ovarian): > 100 µM
TGI (KM12 colon): > 100 µM
TGI (COLO 205 colon): 35.4 µM

Clc1cc(Cl)ncn1
TGI (K-562 leukemia): > 100 µM
TGI (SN12C renal): > 100 µM
TGI (MOLT-4 leukemia): > 100 µM
TGI (HOP-92 NSCLC): > 100 µM
TGI (TK-10 renal): > 100 µM
TGI (OVCAR-5 ovarian): > 100 µM
TGI (KM12 colon): > 100 µM
TGI (MDA-MB-231 breast): > 100 µM
TGI (COLO 205 colon): > 100 µM

C#CCOC(=O)c1ccc(OC(C)=O)cc1
TGI (K-562 leukemia): > 100 µM
TGI (SN12C renal): > 100 µM
TGI (MOLT-4 leukemia): > 100 µM
TGI (HOP-92 NSCLC): > 100 µM
TGI (TK-10 renal): > 100 µM
TGI (OVCAR-5 ovarian): > 100 µM
TGI (KM12 colon): > 100 µM
TGI (MDA-MB-231 breast): > 100 µM
TGI (COLO 205 colon): > 100 µM

NC(=O)CN1C=CCC(C(N)=O)=C1
TGI (K-562 leukemia): > 100 µM
TGI (SN12C renal): > 100 µM
TGI (MOLT-4 leukemia): > 100 µM
TGI (HOP-92 NSCLC): > 100 µM
TGI (HL-60(TB) leukemia): > 100 µM
TGI (OVCAR-5 ovarian): > 100 µM
TGI (KM12 colon): > 100 µM
TGI (COLO 205 colon): > 100 µM

CCC(=O)OC1CCn2c1nc1c2C(=O)C(C)=C(NC(C)=O)C1=N (stereo not given)
TGI (K-562 leukemia): > 100 µM
TGI (SN12C renal): 3.02 µM
TGI (HOP-92 NSCLC): 5.15 µM
TGI (TK-10 renal): 12.8 µM
TGI (OVCAR-5 ovarian): 3.47 µM
TGI (KM12 colon): 5.37 µM
TGI (COLO 205 colon): 3.18 µM

CCOC(=O)CCC(C(=O)OCC)n1nnc2cc(Nc3c(C)[n+]([O-])c4cc(F)c(OCC)cc4[n+]3[O-])ccc21 (stereo not given)
TGI (K-562 leukemia): > 100 µM
TGI (SN12C renal): > 100 µM
TGI (MOLT-4 leukemia): > 100 µM
TGI (HOP-92 NSCLC): 88.8 µM
TGI (HL-60(TB) leukemia): > 100 µM
TGI (TK-10 renal): > 100 µM
TGI (OVCAR-5 ovarian): > 100 µM
TGI (KM12 colon): > 100 µM
TGI (COLO 205 colon): > 100 µM

Cc1c2ccncc2c(C)c2c1[nH]c1ccc(OCCN(C)C)cc12
TGI (K-562 leukemia): 5.21 µM
TGI (SN12C renal): 1.61 µM
TGI (MOLT-4 leukemia): 0.157 µM
TGI (HOP-92 NSCLC): 1.62 µM
TGI (OVCAR-5 ovarian): 1.59 µM
TGI (KM12 colon): 0.499 µM
TGI (COLO 205 colon): 1.3 µM

Cc1c([C@H](C)[C@@H]2NC[C@@H](C)C[C@H]2O)ccc2c1C[C@H]1[C@H]2CC=C2C[C@@H](O)CC[C@@]21C
TGI (K-562 leukemia): 40.6 µM
TGI (SN12C renal): 69.5 µM
TGI (MOLT-4 leukemia): 37.4 µM
TGI (HOP-92 NSCLC): 23.3 µM
TGI (TK-10 renal): 67.3 µM
TGI (OVCAR-5 ovarian): 90.8 µM
TGI (KM12 colon): 37.2 µM
TGI (MDA-MB-231 breast): 35.4 µM
TGI (COLO 205 colon): 29.4 µM

[N-]=[N+]=NCC(O)Cn1cnc2c(NC(=O)c3ccccc3)ncnc21 (stereo not given)
TGI (K-562 leukemia): > 100 µM
TGI (SN12C renal): > 100 µM
TGI (MOLT-4 leukemia): > 100 µM
TGI (HOP-92 NSCLC): > 100 µM
TGI (HL-60(TB) leukemia): > 100 µM
TGI (TK-10 renal): > 100 µM
TGI (OVCAR-5 ovarian): > 100 µM
TGI (KM12 colon): > 100 µM
TGI (COLO 205 colon): 76.9 µM

CC1(C)O[C@@H](C[C@]2(C#N)C[C@H](CCl)OC(C)(C)O2)C[C@@H](C#N)O1
TGI (K-562 leukemia): > 100 µM
TGI (SN12C renal): > 100 µM
TGI (MOLT-4 leukemia): > 100 µM
TGI (HOP-92 NSCLC): > 100 µM
TGI (HL-60(TB) leukemia): > 100 µM
TGI (TK-10 renal): > 100 µM
TGI (OVCAR-5 ovarian): > 100 µM
TGI (KM12 colon): > 100 µM
TGI (COLO 205 colon): > 100 µM

O=C1C2C=CC(n3[nH]c(=O)n(Cc4ccccc4)c3=O)CC2C(=O)N1c1ccc(Br)cc1 (stereo not given)
TGI (K-562 leukemia): > 100 µM
TGI (SN12C renal): > 100 µM
TGI (MOLT-4 leukemia): > 100 µM
TGI (HOP-92 NSCLC): > 100 µM
TGI (HL-60(TB) leukemia): > 100 µM
TGI (TK-10 renal): > 100 µM
TGI (OVCAR-5 ovarian): > 100 µM
TGI (KM12 colon): > 100 µM
TGI (COLO 205 colon): > 100 µM

CCOC(=O)C1=C(O)c2ccc(C)cc2C(=O)C1=O
TGI (K-562 leukemia): > 100 µM
TGI (SN12C renal): > 100 µM
TGI (MOLT-4 leukemia): > 100 µM
TGI (HOP-92 NSCLC): > 100 µM
TGI (HL-60(TB) leukemia): > 100 µM
TGI (TK-10 renal): > 100 µM
TGI (OVCAR-5 ovarian): > 100 µM
TGI (KM12 colon): > 100 µM
TGI (COLO 205 colon): > 100 µM

C=C1C(C)C2C(Cc3ccccc3)NC(=O)C23OC(=O)/C=C\CC(=O)CCC(C)C/C=C/C3C1O (stereo not given)
TGI (K-562 leukemia): 5.79 µM
TGI (SN12C renal): 5.93 µM
GI50 (MOLT-4 leukemia): 1.01 µM
TGI (MOLT-4 leukemia): 3.83 µM
GI50 (HOP-92 NSCLC): 0.345 µM
TGI (HOP-92 NSCLC): 2.1 µM
GI50 (HL-60(TB) leukemia): 0.158 µM and 0.755 µM
TGI (TK-10 renal): 0.722 µM
TGI (OVCAR-5 ovarian): 25.2 µM
TGI (KM12 colon): 12.7 µM
TGI (COLO 205 colon): 5.09 µM
